Results on eight compounds are retold here after publication PMC8379015, “Resistance of Mycobacterium tuberculosis to indole 4-carboxamides occurs through alterations in drug metabolism and tryptophan biosynthesis” (Cell Chemical Biology, 2021).

Converted amounts (≈) assume the structure as drawn.

Assay [1] deals with C1-resistant mutants of M. tuberculosis. Type of assay: cell-based, Mycobacterium tuberculosis.
Assay [2] has as its system M. tuberculosis H37Rv mutant 5B (amiC W238∗). It is filed as cell-based, Mycobacterium tuberculosis.
Assay [3] relates to M. tuberculosis H37Rv mutant 5O (trpB D261G). Type of assay: cell-based, Mycobacterium tuberculosis.
In assay [4] the test system is M. tuberculosis H37Rv mutant 5N (trpA D54G). Type of assay: cell-based, Mycobacterium tuberculosis.
In assay [5] the test system is M. tuberculosis H37Rv mutant 5A (amiC K195∗). Type of assay: cell-based, Mycobacterium tuberculosis.
In assay [6] the test system is M. tuberculosis H37Rv mutant 5J (trpB A168V). Type of assay: cell-based, Mycobacterium tuberculosis.
The subject of assay [7] is M. tuberculosis H37Rv mutant 5K (trpB A134V). It is filed as cell-based, Mycobacterium tuberculosis.
Assay [8] deals with M. tuberculosis H37Rv mutant 5I (amiC + g in aa352). It is filed as cell-based, Mycobacterium tuberculosis.
Assay [9] concerns M. tuberculosis H37Rv mutant 5G (amiC S157F). It is filed as cell-based, Mycobacterium tuberculosis.
Assay [10] concerns M. tuberculosis H37Rv mutant 5L (trpE H170R). Type of assay: cell-based, Mycobacterium tuberculosis.
Assay [11] deals with M. tuberculosis H37Rv mutant 5H (amiC + g in aa352). Type of assay: cell-based, Mycobacterium tuberculosis.
Assay [12] concerns M. tuberculosis H37Rv mutant 5M (trpB D261G). It is filed as cell-based, Mycobacterium tuberculosis.
The next assay deals with C5R mutants of Mtb. Type of assay: cell-based, Mycobacterium tuberculosis.
The test system of assay [13] is M. tuberculosis H37Rv overexpressing AmiC (rv2888c, Psmyc). Type of assay: cell-based, Mycobacterium tuberculosis.
Assay [14] deals with M. tuberculosis H37Rv recombineered trpB / trpE mutant strains. It is filed as cell-based, Mycobacterium tuberculosis.
The next assay addresses TrpE H170R (Mycobacterium tuberculosis, UniProt P9WFX3, H170R). Type of assay: biochemical.

The term MIC denotes the least concentration at which growth counts as inhibited. On to `CNS(=O)(=O)c1ccc2c(c1)CCN2C(=O)c1ccc(C)s1` [C5, reference compound], for which the “cross-resistance of mutants raised against C1” value in assay [1] is listed as “None of the resistant mutants raised against C1 were cross-resistant”. For the same compound, the “susceptibility of one C1R mutant relative to WT” value in [1] is listed as “more susceptible”. The MIC in assay [2] was 0.39 µM (≈ 0.131 µg/mL); in assay [3], 0.19 µM (≈ 0.0639 µg/mL); in assay [4], 0.19 µM (≈ 0.0639 µg/mL); in assay [5], 0.39 µM (≈ 0.131 µg/mL); in [6] it was 0.39 µM (≈ 0.131 µg/mL); in assay [7], 0.39 µM (≈ 0.131 µg/mL). For the same compound, the MIC worked out at 0.39 µM (≈ 0.131 µg/mL) in [8]; 0.39 µM (≈ 0.131 µg/mL) in assay [9]; 0.39 µM (≈ 0.131 µg/mL) in assay [10]; 0.39 µM (≈ 0.131 µg/mL) in [11]; 0.098 µM (≈ 0.033 µg/mL) in assay [12].
With “N-(1H-indol-4-yl)-6-(2,2,2-trifluoroethoxy)nicotinamide [C1]”, in the assay on C5R mutants of Mtb, the “cross-resistance of C5R mutants” value is “no cross-resistance”. Further, the MIC in assay [2] is over 100 µM; in [3] it was 6.25 µM; in assay [4], 6.25 µM; in assay [5], over 100 µM; in [6] it was 6.25 µM; in assay [7], 6.25 µM. Further, the MIC is over 100 µM in assay [8]; over 100 µM in assay [9]; 6.25 µM in [10]; over 100 µM in assay [11]; 6.25 µM in assay [12]. Further, the “change in MIC on overexpression of AmiC” value in [13] is on record as “did not result in a noticeable change in MIC”. In addition, the “resistance of recombineered strains” value in assay [14] is given as “resistant”.
Take `Nc1cccc2[nH]ccc12` [4-AI, 4-aminoindole, reference compound]: in assay [1], the “cross-resistance of amiC mutants” value is recorded as “not cross-resistant”. Further, the “resistance of trpABE mutants” value in assay [1] is “highly resistant”. Moreover, the “cross-resistance of C5R mutants” value in the assay on C5R mutants of Mtb is on record as “no cross-resistance”. Also, the MIC amounted to 4.68 µM (≈ 0.619 µg/mL) in assay [2]; 100 µM (≈ 13.2 µg/mL) in assay [3]; 100 µM (≈ 13.2 µg/mL) in [4]; 4.68 µM (≈ 0.619 µg/mL) in assay [5]; 100 µM (≈ 13.2 µg/mL) in [6]; 100 µM (≈ 13.2 µg/mL) in assay [7]. In addition, the MIC worked out at 4.68 µM (≈ 0.619 µg/mL) in assay [8]; 4.68 µM (≈ 0.619 µg/mL) in [9]; 100 µM (≈ 13.2 µg/mL) in [10]; 4.68 µM (≈ 0.619 µg/mL) in assay [11]; 100 µM (≈ 13.2 µg/mL) in [12]. Also, the “shift in MIC” value in assay [10] is listed as “approximately 4 fold”. For the same compound, in assay [14], the “resistance of recombineered strains” value was “resistant”.
With `O=C(COc1ccccc1)Nc1cccc2[nH]ccc12` [C2, N-(1H-indol-4-yl)-2-phenoxyacetamide], the “cross-resistance of C1-resistant mutants” value in assay [1] is listed as “cross-resistant”. The MIC in assay [2] was 75 µM (≈ 20 µg/mL); in [3], 25 µM (≈ 6.66 µg/mL); in assay [4] it was 25 µM (≈ 6.66 µg/mL); in [5], 75 µM (≈ 20 µg/mL); in [6], 25 µM (≈ 6.66 µg/mL); in assay [7], 25 µM (≈ 6.66 µg/mL). Besides, the MIC amounted to 75 µM (≈ 20 µg/mL) in [8]; 75 µM (≈ 20 µg/mL) in [9]; 25 µM (≈ 6.66 µg/mL) in assay [10]; 75 µM (≈ 20 µg/mL) in [11]; 25 µM (≈ 6.66 µg/mL) in [12]. The “resistance of recombineered strains” value in assay [14] is listed as “resistant”.
`NNC(=O)c1ccncc1` [INH, isoniazid, reference compound]: the minimal inhibitory concentration (MIC) in [2], in [3], in [4], in [5], in assay [6] and in assay [7] was 0.12 µM (≈ 0.0165 µg/mL) in each case. The minimal inhibitory concentration (MIC) in assay [8], in assay [9], in [10], in assay [11] and in assay [12] was 0.12 µM (≈ 0.0165 µg/mL) each time. Besides, in assay [14], the “resistance of recombineered strains” value is “not”.
On to `O=C(Nc1cccc2[nH]ccc12)C1CCCCC1` [C3, N-(1H-indol-4-yl)cyclohexanecarboxamide], for which the “cross-resistance of C1-resistant mutants” value in [1] is given as “cross-resistant”. In addition, the MIC in [2], in [3], in [4], in assay [5], in [6] and in assay [7] was over 100 µM throughout. Besides, the MIC in [8], in assay [9], in assay [10], in assay [11] and in [12] was over 100 µM in each case.
Regarding `O=C(Nc1cccc2[nH]ccc12)c1ccc(OCC(F)(F)F)cn1` [C4, N-(1H-indol-4-yl)-5-(2,2,2-trifluoroethoxy)picolinamide], the “cross-resistance of C1-resistant mutants” value in assay [1] was “cross-resistant”. The MIC in assay [2] is 75 µM (≈ 25.1 µg/mL); in [3], 25 µM (≈ 8.38 µg/mL); in [4], 25 µM (≈ 8.38 µg/mL); in [5], 75 µM (≈ 25.1 µg/mL); in assay [6], 25 µM (≈ 8.38 µg/mL); in assay [7], 25 µM (≈ 8.38 µg/mL). Also, the minimal inhibitory concentration (MIC) in assay [8] was 75 µM (≈ 25.1 µg/mL); in assay [9], 75 µM (≈ 25.1 µg/mL); in assay [10], 25 µM (≈ 8.38 µg/mL); in assay [11], 75 µM (≈ 25.1 µg/mL); in [12], 25 µM (≈ 8.38 µg/mL).
Turning to `N[C@@H](Cc1c[nH]c2ccccc12)C(=O)O` [L-Trp, L-tryptophan], the “loss of sensitivity to allosteric inhibition, H170R vs WT” value at TrpE H170R worked out at 250 times.
